Tests used:
Format in all cases: cell-based
A549 spheroids = assay: collagen I gel invasion by spheroids, timelapse videomicroscopy, after FHIT silencing; conditions: irbinitinib 15 nM, FHIT siRNA, up to 72h, vs FHIT siRNA+DMSO p=0.0001, FIG. 4
Description: FIG. 4: Collagen I gel invasion by A549 spheroids induced by FHIT silencing is HER2-dependent. […] A. Representative phase-contrast images of spheroids at T0 and T=72h. B. Time course analysis of mean diameter of spheroids.** p<0.01; *** p<0.001.

A549 cell line = assay: matrigel modified Boyden chamber cell invasion assay after FHIT silencing; conditions: irbinitinib 10 nM; A549 cells transfected with FHIT siRNA; FIG. 3B
Text: (§1) FIG. 3: Cell invasion induced by FHIT silencing is HER2-dependent.

HBE-4-E6/E7 cell line = assay: as above; conditions: irbinitinib 10 nM; HBE-4-E6/E7 cells transfected with FHIT siRNA; FIG. 3A
Text: as §1

`Cc1cc(Nc2ncnc3ccc(NC4=NC(C)(C)CO4)cc23)ccc1Oc1ccn2ncnc2c1` [irbinitinib, N4-(4-([1,2,4]Triazolo[1,5-a]pyridin-7-yloxy)-3-methylphenyl)-N6-(4,4-dimethyl-4,5-dihydrooxazol-2-yl)quinazoline-4,6-diamine] was tested, and the “spheroid invasion (tumor cell dispersion into collagen I matrix, mean spheroid diameter) induced by FHIT silencing” value (A549 spheroids) was “reduces spheroid invasion”, the “cell invasion induced by FHIT silencing” value (A549 cell line) was “reduces cell invasion” and the “cell invasion induced by FHIT silencing” value (HBE-4-E6/E7 cell line) was “reduces cell invasion”.
